Results from patent US8222288B2, “Small molecule inhibitors of MDM2 and the uses thereof” (The Regents of the University of Michigan, priority 2006, dated 2012).
Several values for one entry are separate records, joined by “and”; a condition that tells them apart may be missing. Equal entries are not always repeated. Where two headings read alike, the source gives them in different places.

How the values were obtained:
[1] = molecular target: MDM2 protein (Homo sapiens, UniProt Q00987); experiment: MDM2 binding assay (competition with F-6 probe; IC50 and calculated Ki); details: F-6 [1 nM]; for IC50: MDM2 [10 nM], repeat determinations listed line by line; for Ki: value in parentheses, calculation of Ki: MDM2 [10 nM], read-out: (Ki ± SD)
Chain of MDM2 protein (Q00987 whole entry, species assumed): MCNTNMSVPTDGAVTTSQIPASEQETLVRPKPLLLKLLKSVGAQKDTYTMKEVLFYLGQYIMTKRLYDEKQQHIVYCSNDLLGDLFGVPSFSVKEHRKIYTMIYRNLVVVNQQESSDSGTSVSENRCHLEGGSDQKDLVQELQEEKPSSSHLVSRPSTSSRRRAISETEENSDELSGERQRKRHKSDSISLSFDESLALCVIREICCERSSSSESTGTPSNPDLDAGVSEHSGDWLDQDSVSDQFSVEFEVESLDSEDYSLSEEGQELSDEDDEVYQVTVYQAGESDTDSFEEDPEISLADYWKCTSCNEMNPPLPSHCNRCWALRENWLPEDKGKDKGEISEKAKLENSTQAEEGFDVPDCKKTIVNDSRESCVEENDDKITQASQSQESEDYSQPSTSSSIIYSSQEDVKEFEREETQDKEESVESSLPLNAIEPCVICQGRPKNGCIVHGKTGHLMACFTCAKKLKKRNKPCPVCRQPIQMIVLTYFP

[2] = system: HCT116 p53KO cells; experiment: Cell growth inhibition, HCT116 p53KO; details: single runs and mean ± SD line
Description: (§1) Cells were seeded in 96-well flat bottom cell culture plates at a density of 3-4×10^3 cells/well and incubated in the presence of compounds for 4 days.

[3] = system: LNCaP (p53 wild-type) cells; experiment: Cell growth inhibition, WST-8, 4 days, LNCaP; details: single runs and mean ± SD line
Description: (§2) To test these predictions, a cell growth assay was developed using human prostate cancer LNCaP (p53 wild-type) and PC-3 (p53 null) cell lines.
as §1

[4] = system: PC-3 (p53 null) cells; experiment: Cell growth inhibition, WST-8, 4 days, PC3; details: single runs and mean ± SD line
Description: as §2, §1

[5] = system: HCT116 (wild-type p53) colon cancer cells; experiment: Cell growth inhibition, HCT116 p53WT; details: single runs and mean ± SD line
Description: as §1

[6] = Homo sapiens, HCT-116, read-out: HCT116 p53KO IC50 (μM), HCT116 p53KO
[7] = Homo sapiens, LNCaP, 96 h, read-out: LNCaP IC50 (μM), LNCaP p53 wild-type, 4 days, WST-8
[8] = read-out: HCT116 p53KO IC50, HCT116 p53KO
[9] = Homo sapiens, 96 h, read-out: PC3 IC50 (μM), PC3 p53 null, 4 days, WST-8
[10] = read-out: PC3 IC50, PC3 p53 null, 4 days, WST-8
[11] = Homo sapiens, HCT-116, read-out: HCT116 p53WT IC50 (μM), HCT116 p53WT
[12] = read-out: LNCaP IC50, LNCaP p53 wild-type, 4 days, WST-8
[13] = read-out: HCT116 p53WT IC50, HCT116 p53WT

Row | Compound | IC50 [1] | IC50 [2, 6] [µM] | IC50 [3, 7] [µM] | IC50 [4, 9] [µM] | IC50 [5, 11] [µM] | further results
1 | CC(C)(C)C[C@H]1N[C@@H](C(=O)NCCC2CCC(O)C2)[C@H](c2ccc(F)c(Cl)c2)[C@@]12C(=O)Nc1cc(Cl)c(F)cc12 (single isomer, unassigned) [MDM2-319-6, 6-CHLORO-4′-(3-CHLORO-4-FLUOROPHENYL)-2′-(2,2-DIMETHYL-PROPYL)-5-FLUORO-2-OXO-1,2-DIHYDRO-SPIRO[INDOLE-3,3′-PYRROLIDINE]-5′-CARBOXYLIC ACID [2-(3-HYDROXY-CYCLOPENTYL)-ETHYL]-AMIDE] | 0.59 µM and 0.55 µM | – | – | – | – | –
2 | CC(C)(C)C[C@H]1N[C@@H](C(=O)NCC[C@H](O)CO)[C@H](c2ccc(F)c(Cl)c2)[C@@]12C(=O)Nc1cc(Cl)c(F)cc12 [MDM2-319, (2′R,3S,3″S,4′R,5′R)6-CHLORO-4′-(3-CHLORO-4-FLUORO-PHENYL)-2′-(2,2-DIMETHYL-PROPYL)-5-FLUORO-2-OXO-1,2-DIHYDRO-SPIRO[INDOLE-3,3′-PYRROLIDINE]-5′-CARBOXYLIC ACID (3,4-DIHYDROXY-BUTYL)-AMIDE] | – | 12.8 ± 1.29 | 0.229 ± 0.04 | – | – | –
3 | O=C(NCC[C@H](O)CO)[C@@H]1N[C@H](CC2CCCC2)[C@]2(C(=O)Nc3cc(Cl)c(F)cc32)[C@H]1c1ccc(F)c(Cl)c1 [MDM2-319-1, 6-CHLORO-4′-(3-CHLORO-4-FLUOROPHENYL)-2′-CYCLOPENTYLMETHYL-5-FLUORO-2-OXO-1,2-DIHYDRO-SPIRO[INDOLE-3,3′-PYRROLIDINE]-5′-CARBOXYLIC ACID (3,4-DIHYDROXY-BUTYL)-AMIDE] | 0.194 µM and 0.072 µM | – | – | – | – | –
4 | O=C(NCC[C@H](O)CO)[C@@H]1N[C@H](Cc2ccccc2)[C@]2(C(=O)Nc3cc(Cl)c(F)cc32)[C@H]1c1ccc(F)c(Cl)c1 [MDM2-319-2] | 175 µM and > 80 µM | 22.2 | – | 14.4 | – | Ki [1]: 16.4 µM; IC50 [2, 8]: 19.5 µM and 25.4 µM and 22.4 µM; IC50 [4, 10]: 19.6 µM (2×) and 17.9 µM
5 | O=C(NCC[C@H](O)CO)[C@@H]1N[C@H](C2CCCCC2)[C@]2(C(=O)Nc3cc(Cl)c(F)cc32)[C@H]1c1ccc(F)c(Cl)c1 [MDM2-319-4, 6-CHLORO-4′-(3-CHLORO-4-FLUOROPHENYL)-2′-CYCLOHEXYL-5-FLUORO-2-OXO-1,2-DIHYDRO-SPIRO[INDOLE-3,3′-PYRROLIDINE]-5′-CARBOXYLIC ACID (3,4-DIHYDROXY-BUTYL)-AMIDE] | 0.71 µM and 1.16 µM and 0.46 µM | – | – | – | – | Ki [1]: 0.066 µM
6 | CC(C)(C)C[C@H]1N[C@@H](C(=O)NCCC2CCC(O)C2)[C@H](c2ccc(F)c(Cl)c2)[C@@]12C(=O)Nc1cc(Cl)c(F)cc12 (some centres unmarked) [MDM2-319-5] | 0.055 µM and 0.04 µM | 10.5 | 0.602 | 9.47 | 0.993 | –
7 | COC(C)(C)C[C@H]1N[C@@H](C(=O)NCC[C@H](O)CO)[C@H](c2ccc(F)c(Cl)c2)[C@@]12C(=O)Nc1cc(Cl)c(F)cc12 [MI-319-7] | 39.3 µM | – | 2.17 | 39.7 | 8.22 | –
8 | O=C(NCC[C@H](O)CO)[C@@H]1N[C@H](C2CCCC2)[C@]2(C(=O)Nc3cc(Cl)c(F)cc32)[C@H]1c1ccc(F)c(Cl)c1 [MI-319-8, 6-CHLORO-4′-(3-CHLORO-4-FLUOROPHENYL)-2′-CYCLOPENTYL-5-FLUORO-2-OXO-1,2-DIHYDRO-SPIRO[INDOLE-3,3′-PYRROLIDINE]-5′-CARBOXYLIC ACID (3,4-DIHYDROXY-BUTYL)-AMIDE] | 0.34 µM and 0.53 µM | – | – | – | – | –
9 | CN1CCN(C(=O)[C@@H]2N[C@H](CC(C)(C)C)[C@]3(C(=O)Nc4cc(Cl)c(F)cc43)[C@H]2c2ccc(F)c(Cl)c2)CC1 [MI-319-9] | 3.58 µM | – | 2.87 | – | – | IC50 [3, 12]: 2.77 µM and 1.75 µM
10 | CC(C)(C)C[C@H]1N(S(=O)(=O)C(F)(F)F)[C@@H](C(=O)NCCN2CCOCC2)[C@H](c2ccc(F)c(Cl)c2)[C@@]12C(=O)Nc1cc(Cl)c(F)cc12 [MI-319-10] | – | – | 0.776 | 10.5 | 1.41 | IC50 [5, 13]: 1.95 µM and 1.09 µM and 1.48 µM; IC50 [4, 10]: 10.4 µM and 8.07 µM and 9.63 µM; IC50 [3, 12]: 0.828 µM and 0.449 µM and 0.68 µM
11 | CC(=O)N1[C@@H](C(=O)NCC[C@H](O)CO)[C@H](c2ccc(F)c(Cl)c2)[C@@]2(C(=O)Nc3cc(Cl)c(F)cc32)[C@H]1CC(C)(C)C [MI-319-13, 1′-ACETYL-6-CHLORO-4′-(3-CHLORO-4-FLUOROPHENYL)-2′-(2,2-DIMETHYL-PROPYL)-5-FLUORO-2-OXO-1,2-DIHYDRO-SPIRO[INDOLE-3,3′-PYRROLIDINE]-5′-CARBOXYLIC ACID (3,4-DIHYDROXY-BUTYL)-AMIDE] | 5.87 µM and 5.04 µM | 32.6 | – | – | – | IC50 [2, 8]: 35.1 µM and 33 µM and 33.6 µM
12 | CC(C)(C)C[C@H]1N[C@@H](C(=O)NCC(=O)O)[C@H](c2ccc(F)c(Cl)c2)[C@@]12C(=O)Nc1cc(Cl)c(F)cc12 [MI-319-15, {[6-CHLORO-4′-(3-CHLORO-4-FLUOROPHENYL)-2′-(2,2-DIMETHYL-PROPYL)-5-FLUORO-2-OXO-1,2-DIHYDRO-SPIRO[INDOLE-3,3′-PYRROLIDINE]-5′-CARBONYL]-AMINO}-ACETIC ACID] | 0.35 µM and 0.18 µM | > 30 | 4.52 | > 30 | 12.1 | IC50 [5, 13]: 12.9 µM and 13.9 µM and 13 µM; IC50 [3, 12]: 4.12 µM and 6.11 µM and 4.92 µM
13 | CC(C)(C)C[C@H]1N[C@@H](C(=O)NCC[C@H](O)C(=O)O)[C@H](c2ccc(F)c(Cl)c2)[C@@]12C(=O)Nc1cc(Cl)c(F)cc12 [MI-319-16] | – | – | – | > 30 | > 30 | –
14 | CC(C)(C)C[C@H]1N[C@@H](C(=O)NCCn2ccnc2)[C@H](c2ccc(F)c(Cl)c2)[C@@]12C(=O)Nc1cc(Cl)c(F)cc12 [MI-319-17, 6-CHLORO-4′-(3-CHLORO-4-FLUOROPHENYL)-2′-(2,2-DIMETHYL-PROPYL)-5-FLUORO-2-OXO-1,2-DIHYDRO-SPIRO[INDOLE-3,3′-PYRROLIDINE]-5′-CARBOXYLIC ACID (2-IMIDAZOL-1-YL-ETHYL)-AMIDE] | 0.39 µM and 0.49 µM | – | – | – | – | –
15 | CC(C)(C)C[C@H]1N[C@@H](C(=O)NCC[C@@H](O)C[C@@H](O)CC(=O)O)[C@H](c2ccc(F)c(Cl)c2)[C@@]12C(=O)Nc1cc(Cl)c(F)cc12 [MI-319-18, 7-{[6-CHLORO-4′-(3-CHLORO-4-FLUOROPHENYL)-2′-(2,2-DIMETHYL-PROPYL)-5-FLUORO-2-OXO-1,2-DIHYDRO-SPIRO[INDOLE-3,3′-PYRROLIDINE]-5′-CARBONYL]-AMINO}-3,5-DIHYDROXY-HEPTANOIC ACID] | 3.51 µM and 3.57 µM | > 30 | > 30 | > 30 | > 30 | –
16 | CC(C)(C)C[C@H]1N[C@@H](C(=O)NC[C@H](O)[C@H](O)CO)[C@H](c2ccc(F)c(Cl)c2)[C@@]12C(=O)Nc1cc(Cl)c(F)cc12 [MI-319-19, 6-CHLORO-4′-(3-CHLORO-4-FLUOROPHENYL)-2′-(2,2-DIMETHYL-PROPYL)-5-FLUORO-2-OXO-1,2-DIHYDRO-SPIRO[INDOLE-3,3′-PYRROLIDINE]-5′-CARBOXYLIC ACID (2,3,4-TRIHYDROXY-BUTYL)-AMIDE] | 0.5 µM and 0.49 µM | – | – | – | – | –
17 | CC(C)(C)C[C@H]1N[C@@H](C(=O)NCCNC(=N)N)[C@H](c2ccc(F)c(Cl)c2)[C@@]12C(=O)Nc1cc(Cl)c(F)cc12 [MI-319-20, 6-CHLORO-4′-(3-CHLORO-4-FLUOROPHENYL)-2′-(2,2-DIMETHYL-PROPYL)-5-FLUORO-2-OXO-1,2-DIHYDRO-SPIRO[INDOLE-3,3′-PYRROLIDINE]-5′-CARBOXYLIC ACID (2-GUANIDINO-ETHYL)-AMIDE] | – | – | 27.4 | – | – | IC50 [3, 12]: 31.6 µM
18 | CC(C)(C)C[C@H]1N[C@@H](C(=O)NCCc2ncc[nH]2)[C@H](c2cccc(Cl)c2)[C@@]12C(=O)Nc1cc(Cl)c(F)cc12 [MI-319-21] | – | 11.8 | 2.84 | 21.9 | 4.4 | –
